Experimental data reported in ChEMBL document CHEMBL1201862, “PubChem BioAssay data set” (2004).
Calls of active or inactive are those of the source.

Columns and labels:
[1] = molecular target: Nuclear receptor ROR-gamma (Homo sapiens, UniProt P51449); assay: LXR, FXR and VP16 reporter activity, cell-based, luciferase reporter, ROR modulator project, late-stage follow-up, panel member RORG (AID 2117)
[2] = molecular target: Nuclear receptor ROR-alpha (Homo sapiens, UniProt P35398); assay: LXR, FXR and VP16 reporter activity, cell-based, luciferase reporter, ROR modulator project, late-stage follow-up, panel member RORA (AID 2117)
[3] = Trypanosoma cruzi growth suppression in host cells – NIH3T3 host cells, beta-gal luminescence, confirmation (AID 2044); format: functional, cell-based;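 further: intracellular parasites grown in NIH/3T3 mouse fibroblasts as host cells; luminescent beta-galactosidase reporter signal from transgenic T. cruzi replicating inside host cells; inhibitors lower the luminescence signal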
[4] = NIH3T3 cell viability loss – ATP luminescence, mouse fibroblasts, counter-screen, dose response (AID 2010); format: functional, cell-based;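 further: cells exposed to compound for about 90 hours before reading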
[5] = molecular target: Intestinal-type alkaline phosphatase (Mus musculus, UniProt P24822); assay: PubChem AID 488785; format: functional
[6] = molecular target: Alkaline phosphatase, tissue-nonspecific isozyme (Homo sapiens, UniProt P05186); assay: TNAP enzyme inhibition by screening hits, dose response, selectivity assay for mouse IAP inhibitor project, biochemical, human TNAP, uHTS hits (AID 488906); format: functional
[7] = molecular target: Intestinal-type alkaline phosphatase (Homo sapiens, UniProt P09923); assay: inhibition of human intestinal alkaline phosphatase – biochemical, dose response (AID 488876); format: functional
[8] = molecular target: T1, Dual specificity protein phosphatase 3 (Homo sapiens, UniProt P51452); assay: VHR1 phosphatase inhibitors, primary screen, biochemical, absorbance, uHTS (AID 1654)
[9] = molecular target: Guanyl-specific ribonuclease T1 (Aspergillus oryzae (strain ATCC 42149 / RIB 40), UniProt P00651); assay: inhibition of ribonuclease T1 activity – biochemical, fluorescence polarization, 1536-well, counter-screen for TPT1 inhibitor project, dose response (AID 2167)
[10] = molecular target: T2, SUMO-activating enzyme (Homo sapiens, UniProt Q9UBT2); assay: blockers of UBC9-mediated SUMO conjugation – biochemical, AlphaScreen, SUMOylation inhibitor project, confirmation (AID 2018); format: functional
[11] = molecular target: T3, Voltage-gated N-type calcium channel alpha-1B subunit/Amyloid beta A4 precursor protein-binding family A member 1 (Homo sapiens, UniProt Q00975+Q02410); format: protein assay
[12] = molecular target: T2, SUMO-activating enzyme; assay: blockers of SAE1/SAE2–UBC9 SUMO transfer – biochemical, HTRF, uHTS, primary screen (AID 2006); format: protein-complex assay
[13] = molecular target: Likely tRNA 2'-phosphotransferase (Candida albicans (strain SC5314 / ATCC MYA-2876) (Yeast), UniProt Q5A7N4); assay: inhibition of Candida TPT1 enzyme activity – biochemical, fluorescence polarization, dose response (AID 2160)
[14] = molecular target: T3, Voltage-gated N-type calcium channel alpha-1B subunit/Amyloid beta A4 precursor protein-binding family A member 1; format: protein assay; remark: listed apart in the source
[15] = molecular target: T1, Dual specificity protein phosphatase 3; assay: VHR1 phosphatase inhibitors, biochemical (AID 1878)
[16] = molecular target: T4, Dual specificity protein phosphatase 6 (Rattus norvegicus, UniProt Q64346); assay: inhibition of rat DUSP6 enzyme activity – biochemical, in vitro, primary screen (AID 425)
T4 sequence (Q64346 whole entry): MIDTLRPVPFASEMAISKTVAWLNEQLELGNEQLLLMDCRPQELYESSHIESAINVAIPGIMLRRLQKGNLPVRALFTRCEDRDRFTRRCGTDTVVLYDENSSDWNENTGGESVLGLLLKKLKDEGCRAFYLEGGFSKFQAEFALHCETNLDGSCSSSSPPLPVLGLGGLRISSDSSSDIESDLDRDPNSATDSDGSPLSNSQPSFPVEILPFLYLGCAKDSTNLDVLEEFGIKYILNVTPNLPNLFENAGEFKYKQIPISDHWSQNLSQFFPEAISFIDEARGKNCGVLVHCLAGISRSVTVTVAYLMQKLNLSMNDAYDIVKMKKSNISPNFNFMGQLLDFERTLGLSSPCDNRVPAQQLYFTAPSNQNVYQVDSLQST

[17] = molecular target: T5, Small ubiquitin-related modifier 1 (Homo sapiens, UniProt P63165); assay: SUMO1 protein interaction blockers, potency – biochemical, fluorescence polarization, uHTS hits, dose response (AID 624382); format: functional; settings: read-out: IC50_Mean
[18] = molecular target: T5, Small ubiquitin-related modifier 1; assay: SUMO1 protein-protein binding blockers, potency – biochemical, FRET, dose response (AID 624383); format: functional; settings: read-out: IC50_Mean

T2 sequence (Q9UBE0 whole entry): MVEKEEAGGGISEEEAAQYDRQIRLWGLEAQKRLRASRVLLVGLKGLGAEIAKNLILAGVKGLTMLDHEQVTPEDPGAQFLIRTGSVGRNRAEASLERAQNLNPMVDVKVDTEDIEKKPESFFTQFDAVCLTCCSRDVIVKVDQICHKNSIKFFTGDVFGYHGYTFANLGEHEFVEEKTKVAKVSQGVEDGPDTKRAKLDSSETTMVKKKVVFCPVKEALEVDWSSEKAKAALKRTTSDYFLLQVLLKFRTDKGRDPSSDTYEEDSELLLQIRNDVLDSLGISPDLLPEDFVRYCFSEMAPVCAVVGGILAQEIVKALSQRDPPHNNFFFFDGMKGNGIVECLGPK
T2 sequence (Q9UBT2 whole entry): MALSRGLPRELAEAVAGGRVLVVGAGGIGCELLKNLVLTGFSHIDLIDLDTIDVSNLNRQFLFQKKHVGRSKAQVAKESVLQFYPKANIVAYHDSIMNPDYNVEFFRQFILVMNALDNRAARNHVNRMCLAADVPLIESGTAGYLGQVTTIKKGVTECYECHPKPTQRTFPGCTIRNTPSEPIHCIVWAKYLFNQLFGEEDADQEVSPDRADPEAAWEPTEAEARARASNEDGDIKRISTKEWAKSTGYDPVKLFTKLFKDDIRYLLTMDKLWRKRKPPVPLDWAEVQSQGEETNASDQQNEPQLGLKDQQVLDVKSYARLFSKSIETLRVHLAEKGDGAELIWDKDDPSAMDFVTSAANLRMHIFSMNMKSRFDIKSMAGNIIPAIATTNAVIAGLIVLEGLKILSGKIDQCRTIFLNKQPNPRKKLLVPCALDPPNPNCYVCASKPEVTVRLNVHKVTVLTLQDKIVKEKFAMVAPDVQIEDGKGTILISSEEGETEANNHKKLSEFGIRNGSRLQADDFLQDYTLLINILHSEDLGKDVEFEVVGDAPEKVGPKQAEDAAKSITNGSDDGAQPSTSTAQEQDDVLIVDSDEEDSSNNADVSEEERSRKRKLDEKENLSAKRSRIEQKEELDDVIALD
T3 sequence (Q00975 whole entry): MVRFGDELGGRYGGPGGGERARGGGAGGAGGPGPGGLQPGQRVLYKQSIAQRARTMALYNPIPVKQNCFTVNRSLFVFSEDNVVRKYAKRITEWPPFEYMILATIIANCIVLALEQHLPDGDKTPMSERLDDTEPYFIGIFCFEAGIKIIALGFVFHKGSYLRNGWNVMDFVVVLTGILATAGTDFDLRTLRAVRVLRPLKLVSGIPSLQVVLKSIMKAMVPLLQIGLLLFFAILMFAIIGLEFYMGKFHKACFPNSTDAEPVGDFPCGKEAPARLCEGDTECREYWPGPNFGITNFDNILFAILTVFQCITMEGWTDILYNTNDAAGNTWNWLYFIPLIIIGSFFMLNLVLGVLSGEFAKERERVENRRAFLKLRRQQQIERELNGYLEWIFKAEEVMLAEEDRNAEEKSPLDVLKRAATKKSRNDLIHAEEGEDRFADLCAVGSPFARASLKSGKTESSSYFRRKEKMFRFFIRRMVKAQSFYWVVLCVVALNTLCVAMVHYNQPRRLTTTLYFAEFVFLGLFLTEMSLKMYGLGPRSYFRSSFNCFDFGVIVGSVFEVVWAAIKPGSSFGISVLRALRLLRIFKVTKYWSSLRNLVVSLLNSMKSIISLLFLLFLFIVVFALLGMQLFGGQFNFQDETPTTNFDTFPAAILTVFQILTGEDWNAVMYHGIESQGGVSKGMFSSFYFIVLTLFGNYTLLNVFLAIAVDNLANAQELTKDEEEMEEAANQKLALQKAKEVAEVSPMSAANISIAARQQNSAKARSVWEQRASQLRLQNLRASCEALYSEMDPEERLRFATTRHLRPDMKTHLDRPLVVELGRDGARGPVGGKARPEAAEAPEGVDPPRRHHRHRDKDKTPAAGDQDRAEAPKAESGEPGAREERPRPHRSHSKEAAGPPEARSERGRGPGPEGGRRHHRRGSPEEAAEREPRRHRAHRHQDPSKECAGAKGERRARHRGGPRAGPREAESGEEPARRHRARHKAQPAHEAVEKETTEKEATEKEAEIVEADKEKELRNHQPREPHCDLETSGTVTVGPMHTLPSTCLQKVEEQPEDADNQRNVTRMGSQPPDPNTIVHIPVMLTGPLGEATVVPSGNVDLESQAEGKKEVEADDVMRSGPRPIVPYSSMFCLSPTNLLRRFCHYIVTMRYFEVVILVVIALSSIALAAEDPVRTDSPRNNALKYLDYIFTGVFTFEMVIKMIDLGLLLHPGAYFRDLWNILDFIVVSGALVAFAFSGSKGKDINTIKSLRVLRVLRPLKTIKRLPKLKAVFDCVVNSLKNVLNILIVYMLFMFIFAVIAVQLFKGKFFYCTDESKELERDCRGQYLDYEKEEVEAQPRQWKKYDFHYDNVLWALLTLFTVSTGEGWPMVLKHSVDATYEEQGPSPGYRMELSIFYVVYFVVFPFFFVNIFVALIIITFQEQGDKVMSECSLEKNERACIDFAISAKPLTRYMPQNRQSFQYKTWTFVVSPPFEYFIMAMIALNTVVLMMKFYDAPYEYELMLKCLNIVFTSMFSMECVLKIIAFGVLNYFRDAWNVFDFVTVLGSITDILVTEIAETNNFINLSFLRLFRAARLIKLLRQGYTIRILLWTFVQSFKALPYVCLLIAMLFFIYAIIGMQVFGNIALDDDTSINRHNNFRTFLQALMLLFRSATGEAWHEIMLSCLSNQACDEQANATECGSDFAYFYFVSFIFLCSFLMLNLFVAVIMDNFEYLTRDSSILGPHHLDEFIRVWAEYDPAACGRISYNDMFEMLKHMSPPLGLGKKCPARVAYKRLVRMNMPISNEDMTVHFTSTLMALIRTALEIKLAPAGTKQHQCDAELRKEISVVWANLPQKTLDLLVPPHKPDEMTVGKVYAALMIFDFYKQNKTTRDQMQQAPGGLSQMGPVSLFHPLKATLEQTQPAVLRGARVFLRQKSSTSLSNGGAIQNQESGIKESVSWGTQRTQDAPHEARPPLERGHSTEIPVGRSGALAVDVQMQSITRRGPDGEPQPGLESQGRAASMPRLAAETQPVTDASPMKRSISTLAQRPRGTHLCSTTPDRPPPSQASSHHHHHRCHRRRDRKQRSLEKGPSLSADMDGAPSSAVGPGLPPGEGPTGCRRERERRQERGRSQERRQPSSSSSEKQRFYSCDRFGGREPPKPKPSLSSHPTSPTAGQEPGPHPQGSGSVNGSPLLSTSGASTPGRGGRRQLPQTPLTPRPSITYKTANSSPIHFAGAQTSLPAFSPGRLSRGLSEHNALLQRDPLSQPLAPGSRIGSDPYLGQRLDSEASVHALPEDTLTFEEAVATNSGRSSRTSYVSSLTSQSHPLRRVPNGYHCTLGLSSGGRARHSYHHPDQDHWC
T3 sequence (Q02410 whole entry): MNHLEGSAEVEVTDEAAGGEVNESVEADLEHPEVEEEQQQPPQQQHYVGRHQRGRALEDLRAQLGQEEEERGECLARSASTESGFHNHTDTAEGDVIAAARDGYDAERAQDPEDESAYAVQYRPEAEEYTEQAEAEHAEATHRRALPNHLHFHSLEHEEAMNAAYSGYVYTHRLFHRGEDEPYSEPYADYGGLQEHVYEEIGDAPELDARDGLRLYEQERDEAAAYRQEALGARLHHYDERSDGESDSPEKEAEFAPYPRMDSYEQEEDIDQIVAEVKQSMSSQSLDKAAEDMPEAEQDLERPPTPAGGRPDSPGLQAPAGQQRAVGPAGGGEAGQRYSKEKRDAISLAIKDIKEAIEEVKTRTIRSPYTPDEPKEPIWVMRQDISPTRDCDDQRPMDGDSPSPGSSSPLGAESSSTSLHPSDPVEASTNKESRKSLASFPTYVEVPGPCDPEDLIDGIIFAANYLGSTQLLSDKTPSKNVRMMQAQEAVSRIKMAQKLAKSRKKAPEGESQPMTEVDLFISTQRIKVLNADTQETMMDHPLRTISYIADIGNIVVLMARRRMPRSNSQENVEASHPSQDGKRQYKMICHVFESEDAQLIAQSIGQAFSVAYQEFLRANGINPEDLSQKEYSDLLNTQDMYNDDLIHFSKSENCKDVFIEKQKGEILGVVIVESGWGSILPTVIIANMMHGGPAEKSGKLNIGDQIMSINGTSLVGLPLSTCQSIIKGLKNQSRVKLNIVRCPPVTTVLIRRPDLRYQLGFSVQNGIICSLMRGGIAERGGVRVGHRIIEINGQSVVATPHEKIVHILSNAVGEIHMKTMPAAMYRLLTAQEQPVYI
T5 sequence (P63165 whole entry): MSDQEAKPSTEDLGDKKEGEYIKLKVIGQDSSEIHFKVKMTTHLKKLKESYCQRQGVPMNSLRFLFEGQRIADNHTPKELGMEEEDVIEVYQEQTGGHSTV
T1 sequence (P51452 whole entry): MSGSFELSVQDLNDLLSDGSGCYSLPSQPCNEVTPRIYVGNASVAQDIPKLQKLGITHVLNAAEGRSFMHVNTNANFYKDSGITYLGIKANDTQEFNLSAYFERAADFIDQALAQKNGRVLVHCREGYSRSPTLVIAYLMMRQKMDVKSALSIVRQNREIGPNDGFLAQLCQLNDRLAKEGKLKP
Sequence of Intestinal-type alkaline phosphatase (Homo sapiens, UniProt P09923) (P09923 whole entry): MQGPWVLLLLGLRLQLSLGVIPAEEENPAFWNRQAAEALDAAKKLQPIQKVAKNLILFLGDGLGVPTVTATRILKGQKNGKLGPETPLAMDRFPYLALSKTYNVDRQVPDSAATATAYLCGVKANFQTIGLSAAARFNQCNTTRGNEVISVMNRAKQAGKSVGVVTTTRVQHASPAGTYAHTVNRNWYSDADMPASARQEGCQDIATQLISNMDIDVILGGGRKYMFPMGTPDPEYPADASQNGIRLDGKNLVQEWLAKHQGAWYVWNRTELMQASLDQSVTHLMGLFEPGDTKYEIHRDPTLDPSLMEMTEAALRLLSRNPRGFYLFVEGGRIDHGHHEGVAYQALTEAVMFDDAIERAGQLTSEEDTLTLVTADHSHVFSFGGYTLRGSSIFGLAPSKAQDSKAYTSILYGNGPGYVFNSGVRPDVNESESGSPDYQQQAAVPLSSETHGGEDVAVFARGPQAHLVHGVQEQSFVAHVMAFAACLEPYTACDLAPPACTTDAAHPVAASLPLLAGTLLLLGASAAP

O=S(=O)(Nc1ccc(C(O)(C(F)(F)F)C(F)(F)F)cc1)c1cccc2cccnc12
IC50 [1]: > 20 µM (inactive)
IC50 [2]: > 20 µM (inactive)

COc1cc(NC(S)=NCCC(c2ccccc2)c2ccccc2)cc(OC)c1
EC50 [3]: 2.02 µM (active)
EC50 [4]: > 60 µM (not active)
IC50 [5]: 13.7 µM (active)
IC50 [6]: 12.2 µM (active)
IC50 [7]: > 100 µM (inactive)

Cc1cc(C)n(Cc2ccc(C(=O)N/N=C/c3ccc(-c4ccc([N+](=O)[O-])cc4)o3)o2)n1
IC50 [8]: 123 µM (inactive)
IC50 [9]: > 55.7 µM (not active)
IC50 [10]: 5.62 µM (active)
IC50 [11]: 20.2 µM (active)
IC50 [12]: 33 µM (active)
IC50 [13]: 3.55 µM (active)
IC50 [14]: 14 µM (active)
IC50 [15]: 6.64 µM (active)
IC50 [16]: 40 µM (active)
IC50 [17]: > 66.6 µM (inactive)
IC50 [18]: 3.17 µM (active)
